Data reported in PubChem BioAssay AID1259407 (Chemical Carcinogenesis Research Information System (CCRIS), 2018).
Activity calls are given as the source filed them. The rule behind the calls is not given here.

Tested on: CCRIS mutagenicity, Ames/micronucleus/aberration tests
Assay: CCRIS mutagenicity studies
[1] = Test System: AMES SALMONELLA TYPHIMURIUM, Strain/Indicator: TA100, Metabolic Activation: NONE, Method: PREINCUBATION
[2] = Test System: AMES SALMONELLA TYPHIMURIUM, Strain/Indicator: TA1535, Metabolic Activation: NONE, Method: PREINCUBATION
[3] = Test System: AMES SALMONELLA TYPHIMURIUM, Strain/Indicator: TA1537, Metabolic Activation: NONE, Method: PREINCUBATION

SMILES: Cc1cc(N=Nc2c(O)ccc3ccccc23)c(S(=O)(=O)O)cc1Cl
- mutagenic call (End Point: IN VITRO CHROMOSOMAL ABERRATIONS, Test System: CHO CELLS, Metabolic Activation: NONE): inactive; negative
- mutagenic call (End Point: IN VITRO CHROMOSOMAL ABERRATIONS, Test System: CHO CELLS, Metabolic Activation: RAT, LIVER, S-9, AROCLOR 1254): inactive; negative
- mutagenic call (Test System: AMES SALMONELLA TYPHIMURIUM, Strain/Indicator: TA97, Metabolic Activation: HAMSTER, LIVER, S-9, AROCLOR 1254 (10%), Method: PREINCUBATION): inactive; negative
- mutagenic call (Test System: AMES SALMONELLA TYPHIMURIUM, Strain/Indicator: TA97, Metabolic Activation: NONE, Method: PREINCUBATION): inactive; negative
- mutagenic call (Test System: AMES SALMONELLA TYPHIMURIUM, Strain/Indicator: TA97, Metabolic Activation: RAT, LIVER, S-9, AROCLOR 1254 (10%), Method: PREINCUBATION): inactive; negative
- mutagenic call (Test System: AMES SALMONELLA TYPHIMURIUM, Strain/Indicator: TA98, Metabolic Activation: HAMSTER, LIVER, S-9, AROCLOR 1254 (5, 10 OR 30%), Method: PREINCUBATION): inactive; negative
- mutagenic call (Test System: AMES SALMONELLA TYPHIMURIUM, Strain/Indicator: TA98, Metabolic Activation: RAT, LIVER, S-9, AROCLOR 1254 (10%), Method: PREINCUBATION): inactive; negative
- mutagenic call (Test System: AMES SALMONELLA TYPHIMURIUM, Strain/Indicator: TA100, Metabolic Activation: HAMSTER, LIVER, S-9, AROCLOR 1254 (10%), Method: PREINCUBATION): inactive; negative
- mutagenic call [1]: inactive; negative
- mutagenic call (Test System: AMES SALMONELLA TYPHIMURIUM, Strain/Indicator: TA100, Metabolic Activation: RAT, LIVER, S-9, AROCLOR 1254 (10%), Method: PREINCUBATION): inactive; negative
- mutagenic call (Test System: AMES SALMONELLA TYPHIMURIUM, Strain/Indicator: TA100, Metabolic Activation: RAT, LIVER, S-9, AROCLOR 1254, FLAVIN MONONUCLEOTIDE, Method: PREINCUBATION (PRIVAL METHOD)): inactive; negative
- mutagenic call (Test System: AMES SALMONELLA TYPHIMURIUM, Strain/Indicator: TA100, Metabolic Activation: RAT, LIVER, S-9, AROCLOR 1254, Method: PREINCUBATION): inactive; negative
- mutagenic call (Test System: AMES SALMONELLA TYPHIMURIUM, Strain/Indicator: TA1535, Metabolic Activation: HAMSTER, LIVER, S-9, AROCLOR 1254 (10%), Method: PREINCUBATION): inactive; negative
- mutagenic call [2]: inactive; negative
- mutagenic call (Test System: AMES SALMONELLA TYPHIMURIUM, Strain/Indicator: TA1535, Metabolic Activation: RAT, LIVER, S-9, AROCLOR 1254 (10%), Method: PREINCUBATION): inactive; negative
- mutagenic call [3]: inactive; negative

SMILES: CCCCCCCC(=O)N=c1sn(C(=O)CCCCCCC)c2ccc([N+](=O)[O-])cc12
- mutagenic call (Test System: AMES SALMONELLA TYPHIMURIUM, Strain/Indicator: TA100, Metabolic Activation: S-9, Method: STANDARD PLATE): active; positive

SMILES: CCOC(=O)[C@H](CCc1ccccc1)N[C@@H](C)C(=O)N(CC(=O)O)C1Cc2ccccc2C1
- mutagenic call (Test System: AMES SALMONELLA TYPHIMURIUM, Strain/Indicator: TA98, Metabolic Activation: NONE): inactive; negative
- mutagenic call (Test System: AMES SALMONELLA TYPHIMURIUM, Strain/Indicator: TA98, Metabolic Activation: S-9): inactive; negative
- mutagenic call (Test System: AMES SALMONELLA TYPHIMURIUM, Strain/Indicator: TA100, Metabolic Activation: NONE): inactive; negative
- mutagenic call (Test System: AMES SALMONELLA TYPHIMURIUM, Strain/Indicator: TA100, Metabolic Activation: S-9): inactive; negative
- mutagenic call (Test System: AMES SALMONELLA TYPHIMURIUM, Strain/Indicator: TA1535, Metabolic Activation: NONE): inactive; negative
- mutagenic call (Test System: AMES SALMONELLA TYPHIMURIUM, Strain/Indicator: TA1535, Metabolic Activation: S-9): inactive; negative
- mutagenic call (Test System: AMES SALMONELLA TYPHIMURIUM, Strain/Indicator: TA1537, Metabolic Activation: NONE): inactive; negative
- mutagenic call (Test System: AMES SALMONELLA TYPHIMURIUM, Strain/Indicator: TA1537, Metabolic Activation: S-9): inactive; negative
- mutagenic call (Test System: E. COLI, Strain/Indicator: WP2 UVRA, Metabolic Activation: NONE): inactive; negative
- mutagenic call (Test System: E. COLI, Strain/Indicator: WP2 UVRA, Metabolic Activation: S-9): inactive; negative

SMILES: [N-]=[N+]=CC(=O)NCC(=O)NN
- mutagenic call (Test System: AMES SALMONELLA TYPHIMURIUM, Strain/Indicator: TA1535, Metabolic Activation: NONE, Method: STANDARD PLATE): active; positive
- mutagenic call (Test System: UDS RODENT CELLS, Strain/Indicator: THY INCORP (NON-S-PHASE), Metabolic Activation: NONE, Method: AUTORADIOGRAPHY): active; positive

SMILES: Cc1nc(N)nc(N)n1
- mutagenic call (Test System: AMES SALMONELLA TYPHIMURIUM, Strain/Indicator: TA98, Metabolic Activation: NONE, Method: PREINCUBATION): inactive; negative
- mutagenic call (Test System: AMES SALMONELLA TYPHIMURIUM, Strain/Indicator: TA98, Metabolic Activation: RAT LIVER S-9, PHENOBARBITAL AND BETA-NAPHTHOFLAVONE, Method: PREINCUBATION): inactive; negative
- mutagenic call [1]: inactive; negative
- mutagenic call (Test System: AMES SALMONELLA TYPHIMURIUM, Strain/Indicator: TA100, Metabolic Activation: RAT LIVER S-9, PHENOBARBITAL AND BETA-NAPHTHOFLAVONE, Method: PREINCUBATION): inactive; negative
- mutagenic call [2]: inactive; negative
- mutagenic call (Test System: AMES SALMONELLA TYPHIMURIUM, Strain/Indicator: TA1535, Metabolic Activation: RAT LIVER S-9, PHENOBARBITAL AND BETA-NAPHTHOFLAVONE, Method: PREINCUBATION): inactive; negative
- mutagenic call [3]: inactive; negative
- mutagenic call (Test System: AMES SALMONELLA TYPHIMURIUM, Strain/Indicator: TA1537, Metabolic Activation: RAT LIVER S-9, PHENOBARBITAL AND BETA-NAPHTHOFLAVONE, Method: PREINCUBATION): inactive; negative
- mutagenic call (Test System: AMES SALMONELLA TYPHIMURIUM, Strain/Indicator: TA1538, Metabolic Activation: NONE, Method: PREINCUBATION): inactive; negative
- mutagenic call (Test System: AMES SALMONELLA TYPHIMURIUM, Strain/Indicator: TA1538, Metabolic Activation: RAT LIVER S-9, PHENOBARBITAL AND BETA-NAPHTHOFLAVONE, Method: PREINCUBATION): inactive; negative
- mutagenic call (Test System: E.COLI, Strain/Indicator: WP2UVRA, Metabolic Activation: NONE, Method: PREINCUBATION): inactive; negative
- mutagenic call (Test System: E.COLI, Strain/Indicator: WP2UVRA, Metabolic Activation: RAT LIVER S-9, PHENOBARBITAL AND BETA-NAPHTHOFLAVONE, Method: PREINCUBATION): inactive; negative

SMILES: CCOP(=O)(NC(C)C)Oc1ccccc1C(=O)OC(C)C (stereo unspecified)
- mutagenic call (Test System: AMES SALMONELLA TYPHIMURIUM, Strain/Indicator: TA98, Metabolic Activation: NONE, Method: STANDARD PLATE): active; positive
- mutagenic call (Test System: AMES SALMONELLA TYPHIMURIUM, Strain/Indicator: TA98, Metabolic Activation: RAT, LIVER, S-9, Method: STANDARD PLATE): active; positive
- mutagenic call (Test System: AMES SALMONELLA TYPHIMURIUM, Strain/Indicator: TA100, Metabolic Activation: NONE, Method: STANDARD PLATE): inactive; negative
- mutagenic call (Test System: AMES SALMONELLA TYPHIMURIUM, Strain/Indicator: TA100, Metabolic Activation: RAT, LIVER, S-9, Method: STANDARD PLATE): inactive; negative

SMILES: CCCN(COC(C)=O)N=O
- mutagenic call (Test System: UDS RAT UROTHELIAL CELLS, Strain/Indicator: THY INCORP, Metabolic Activation: NONE): active; positive
